Our source for the Ki and IC50 values is ChEMBL document CHEMBL1153042, “Fatty acid amide hydrolase inhibitors. Surprising selectivity of chiral azetidine ureas” (Bioorg Med Chem Lett, 2009).

pIC50, pKi: −log10 of the molar value. Bounds are passed on as bounds.

In assay [1] the target is Cannabinoid receptor 1 (Homo sapiens, UniProt P21554). Nature of the assay: Displacement of [3H]SR141716A from human CB1 receptor.
For assay [2], the target named is T1, Fatty-acid amide hydrolase 1 (Rattus norvegicus, UniProt P97612).
T1 sequence (P97612 whole entry): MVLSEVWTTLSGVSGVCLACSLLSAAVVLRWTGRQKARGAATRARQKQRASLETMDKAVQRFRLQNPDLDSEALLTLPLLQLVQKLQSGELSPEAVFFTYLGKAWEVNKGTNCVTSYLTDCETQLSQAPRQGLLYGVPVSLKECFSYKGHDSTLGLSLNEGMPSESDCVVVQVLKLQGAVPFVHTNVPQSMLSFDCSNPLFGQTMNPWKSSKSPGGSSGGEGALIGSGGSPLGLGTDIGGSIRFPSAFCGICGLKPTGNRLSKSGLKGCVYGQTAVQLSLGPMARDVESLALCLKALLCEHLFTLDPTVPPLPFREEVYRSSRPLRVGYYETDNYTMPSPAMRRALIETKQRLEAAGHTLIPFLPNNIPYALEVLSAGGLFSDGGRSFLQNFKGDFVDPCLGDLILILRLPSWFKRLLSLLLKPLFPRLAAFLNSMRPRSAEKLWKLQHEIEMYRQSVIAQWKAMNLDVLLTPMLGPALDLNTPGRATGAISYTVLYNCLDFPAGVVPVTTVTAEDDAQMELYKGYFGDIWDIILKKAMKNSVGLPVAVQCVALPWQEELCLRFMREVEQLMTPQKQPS
Nature of the assay: Inhibition of rat FAAH incubated 3 hrs prior to addition of arachidonyl-amino-methyl-coumarin amide.

The target of assay [3] is T1, Fatty-acid amide hydrolase 1. Nature of the assay: Inhibition of rat FAAH incubated 1 hr prior to addition of arachidonyl-amino-methyl-coumarin amide.
The target in assay [4] is T2, Fatty-acid amide hydrolase 1 (Homo sapiens, UniProt O00519).
T2 sequence (O00519 whole entry): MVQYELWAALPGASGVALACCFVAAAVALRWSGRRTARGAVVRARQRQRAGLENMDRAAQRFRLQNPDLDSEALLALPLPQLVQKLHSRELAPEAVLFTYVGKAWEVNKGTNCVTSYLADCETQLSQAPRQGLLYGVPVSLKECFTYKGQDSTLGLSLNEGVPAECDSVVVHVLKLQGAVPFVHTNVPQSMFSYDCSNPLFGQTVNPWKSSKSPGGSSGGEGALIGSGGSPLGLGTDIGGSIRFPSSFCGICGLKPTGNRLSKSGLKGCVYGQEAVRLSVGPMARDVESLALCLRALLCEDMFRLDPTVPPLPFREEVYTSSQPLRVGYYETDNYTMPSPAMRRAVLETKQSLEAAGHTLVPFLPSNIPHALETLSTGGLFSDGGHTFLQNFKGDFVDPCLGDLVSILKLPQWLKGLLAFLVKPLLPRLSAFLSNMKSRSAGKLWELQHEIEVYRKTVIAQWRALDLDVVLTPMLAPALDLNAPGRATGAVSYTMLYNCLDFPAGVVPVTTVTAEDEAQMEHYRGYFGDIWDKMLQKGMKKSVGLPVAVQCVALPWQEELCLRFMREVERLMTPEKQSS
Nature of the assay: Inhibition of human FAAH incubated 3 hrs prior to addition of arachidonyl-amino-methyl-coumarin amide.

In assay [5] the target is T2, Fatty-acid amide hydrolase 1. The experiment in a line: Inhibition of human FAAH incubated 1 hr prior to addition of arachidonyl-amino-methyl-coumarin amide.
Assay [6] has as its target Cannabinoid receptor 2 (Homo sapiens, UniProt P34972). Nature of the assay: Displacement of [3H]CP-55940 from human CB2 receptor. (In general: Displacement assays read how much labelled ligand stays bound in the presence of the test substance.)

Cannabinoid receptor 1, sequence (P21554 whole entry): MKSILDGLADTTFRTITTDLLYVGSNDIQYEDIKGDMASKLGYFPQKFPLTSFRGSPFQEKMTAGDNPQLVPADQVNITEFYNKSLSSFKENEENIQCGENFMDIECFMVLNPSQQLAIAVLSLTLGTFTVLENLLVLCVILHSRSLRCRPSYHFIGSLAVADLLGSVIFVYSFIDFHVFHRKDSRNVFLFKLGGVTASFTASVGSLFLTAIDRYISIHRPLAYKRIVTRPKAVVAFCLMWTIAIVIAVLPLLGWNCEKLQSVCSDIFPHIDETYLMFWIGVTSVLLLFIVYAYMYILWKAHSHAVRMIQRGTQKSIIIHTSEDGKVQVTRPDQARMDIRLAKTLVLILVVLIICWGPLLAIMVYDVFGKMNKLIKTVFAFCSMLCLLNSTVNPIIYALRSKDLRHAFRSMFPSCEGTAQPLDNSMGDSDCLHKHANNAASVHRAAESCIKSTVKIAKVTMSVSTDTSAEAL
Cannabinoid receptor 2, sequence (P34972 whole entry): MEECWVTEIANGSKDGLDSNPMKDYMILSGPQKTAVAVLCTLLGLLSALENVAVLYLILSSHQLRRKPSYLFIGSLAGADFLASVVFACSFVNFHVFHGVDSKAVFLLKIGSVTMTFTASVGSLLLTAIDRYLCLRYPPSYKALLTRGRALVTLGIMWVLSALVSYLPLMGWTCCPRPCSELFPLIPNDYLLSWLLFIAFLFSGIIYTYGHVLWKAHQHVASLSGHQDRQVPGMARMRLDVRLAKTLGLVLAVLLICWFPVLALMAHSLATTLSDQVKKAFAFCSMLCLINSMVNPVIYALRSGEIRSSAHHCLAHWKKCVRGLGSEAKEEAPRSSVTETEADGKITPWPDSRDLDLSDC

Consider `O=C(N1CCCCC1)N1CC(O[C@H](c2ccc(Cl)cc2)c2cccnc2Cl)C1`, for which the pKi was greater than 8.00 in assay [1] and 4.96 in assay [6]. Besides, the pIC50 in assay [2], in assay [3], in assay [4] and in assay [5] was less than 5.00 in each case.
Take `O=C(N1CCCCC1)N1CC(O[C@@H](c2ccc(Cl)cc2)c2cccnc2Cl)C1`: the pKi in assay [1] was 6.25; in assay [6] it was 5.14. Also, the pIC50 was 6.27 in assay [2], 5.99 in assay [3], 7.11 in assay [4] and 6.85 in assay [5].
As to `O=C(N1CCCCC1)N1CC(OC(c2ccc(Cl)cc2)c2cccnc2Cl)C1` (racemic), the pKi in assay [1] is greater than 8.00. For the same molecule, the pIC50 in assay [4] was 6.73; in assay [5] it was 6.54.

Usually pKi stands for −log10 of the Ki, conventionally taken in molar units. Read a low pKi as a high Ki. What is called pIC50 is −log10 of the IC50, conventionally taken in molar units. Read a high pIC50 as a low IC50.
